Data as given in ChEMBL document CHEMBL3785084, “Rational modification of the lead molecule: Enhancement in the anticancer and dihydrofolate reductase inhibitory activity” (Bioorg Med Chem Lett, 2016).
The source made the active and inactive calls. The calls are words filed in the database; no cut-off is given here.

Columns and labels:
cells [1] = conditions: Homo sapiens, SNB-19, 48 h; for CC50: read-out: LC50
[2] = Cytotoxicity against human HOP62 cells assessed as cell growth at 10^-5 M after 48 hrs by sulforhodamine B assay; format: functional; conditions: HOP-62, 48 h, read-out: Activity
A498 = experiment: cells; conditions: Homo sapiens, A498, 48 h; for CC50: read-out: LC50
cells [3] = conditions: Homo sapiens, OVCAR-3, 48 h; for CC50: read-out: LC50
cells [4] = conditions: Homo sapiens, UACC-257, 48 h; for CC50: read-out: LC50
cells [5] = conditions: Homo sapiens, OVCAR-5, 48 h; for CC50: read-out: LC50
U-251 = experiment: Cytotoxicity against human U251 cells assessed as cell growth at 10^-5 M after 48 hrs by sulforhodamine B assay; format: functional; conditions: U-251, 48 h, read-out: Activity
[6] = Cytotoxicity against human COLO205 cells assessed as cell growth at 10^-5 M after 48 hrs by sulforhodamine B assay; format: functional; conditions: COLO 205, 48 h, read-out: Activity
SK-MEL-2 = experiment: Cytotoxicity against human SK-MEL-2 cells after 48 hrs by sulforhodamine B assay; format: functional; conditions: SK-MEL-2, 48 h
[7] = molecular target: Dihydrofolate reductase (Homo sapiens) (UniProt P00374)
[8] = Cytotoxicity against human BT549 cells after 48 hrs by sulforhodamine B assay; format: functional; conditions: BT-549, 48 h
[9] = molecular target: Dihydrofolate reductase (Homo sapiens) (UniProt P00374); conditions: 20 to 30 uM

Compound | GI50 (cells [1]) [nM] | TGI (cells [1]) [µM] | CC50 (cells [1]) [µM] | GI50 (A498) [nM] | TGI (A498) [µM] | CC50 (A498) [µM] | GI50 (cells [3]) [nM] | TGI (cells [3]) [µM] | CC50 (cells [3]) [µM] | GI50 (cells [4]) [nM] | TGI (cells [4]) [µM] | CC50 (cells [4]) [µM] | GI50 (cells [5]) [µM] | TGI (cells [5]) [µM] | CC50 (cells [5]) [µM] | further results
COc1cc(/C=C2\C(=O)Nc3ccccc32)cc(OC)c1O | 4500 | 54.9 | > 100 | 2100 | 15.8 | > 100 | 2000 | 5 | 22.3 | 1800 | 18.6 | 67.6 | 4.7 | 18.6 | 52.4 | growth at 10 µM [2]: 64.3%; growth at 10 µM (U-251): 47%; growth at 10 µM [6]: 112%
O=C1Nc2ccccc2/C1=C/c1cn(CC(O)Cn2cc(/C=C3\C(=O)Nc4ccccc43)c3ccccc32)c2ccccc12 (stereo not given) | 1200 | 3.8 | > 100 | 2200 | 4.1 | 7.6 | 1600 | 3.3 | 6.6 | 2300 | 4.4 | 8.3 | 3.4 | 4.5 | 43.6 | GI50 (SK-MEL-2): 1700 nM; TGI (SK-MEL-2): 3.4 µM; CC50 (SK-MEL-2; read-out: LC50 (the source's name)): 6.9 µM; Ka [7]: 1.38 ×10⁵ /M; GI50 [8]: 1700 nM; TGI [8]: 3.6 µM; inhibition [9]: Active
